In patent US8895561B2, “Compounds and methods for treating candidiasis and aspergillus infections” (Cellceutix Corporation, priority 2012, dated 2014):
Where two headings read alike, the source gives them in different places. One block for each molecule: values may come before it.

Experiments:
[1] = test system: C. albicans mature biofilms; experiment: Metabolic activity of mature biofilms grown at an air-liquid interface; type: cell-based
C. albicans GDH2346 [2] = experiment: Cellular efflux, ATP release by luciferase assay; type: cell-based
Procedure: (A) C. albicans GDH2346 was treated with either Compound 100 or histatin 5 for 30 minutes, followed by the separation of the extracellular medium and the cells. Intracellular and extracellular ATP levels were quantified by luciferase assay and measurement in a luminometer, relative to a standard control. Treatment 1=no treatment; Treatment 2=16 μg/mL Compound 100; Treatment 3=32 μg/mL Compound 100; and Treatment 4=Histatin 5 (1 mg/mL). (B) Time dependent release of ATP of cells treated with Compound 100 at 32 μg/mL. (C) Dose response of cells treated for 30 minutes, followed by quantification of extracellular ATP.

C. albicans GDH2346 [3] = experiment: Membrane permeabilization, PI staining and flow cytometry; type: cell-based; settings: 32 μg/mL, 5-minute treatment
Procedure: (A) C. albicans GDH2346 was treated with Compound 100 at the concentrations indicated ([…]) for 30 minutes, followed by staining with PI and quantification by flow cytometry. Ethanol treatment was used to establish 100% uptake. (B) Cells were treated with Compound 100 at 32 μg/mL for the times indicated. To determine whether the compounds act at the membrane, like many host defense proteins, or intracellularly like histatins, the ability of Compound 100 to cause membrane permeability was assessed. Dose-dependent membrane permeabilization of Candida, as shown by cellular accumulation of PI, was evident within 30 minutes at 8 to 32 μg/mL Compound 100 concentrations (see FIG. 3A). Influx was rapid, where >75% of cells were permeabilized after a 5-minute treatment with Compound 100 at 32 μg/mL (see FIG. 3B).

C. albicans [4] = experiment: Mouse Candida sepsis model, kidney burden; type: in vivo; settings: neutropenic mice, IV 1 hour after infection, kidneys at 24 hours
Procedure: Mice were made neutropenic with i.p. injections of cyclophosphamide (150 mg/kg in 10 mL/kg) at 4 and 1 day before inoculation. Each animal was then inoculated by injecting 0.1 mL of inoculum of C. albicans in a tail vein. The standard was administered orally and the test compounds by IV 1 hour after infection. The kidneys were collected from four mice in Group 1 at 1 hour after infection and from the remaining mice in the study at 24 hours after infection. Kidneys were combined in a sterile tube. An aliquot of sterile PBS were added to each tube and the contents homogenized with a tissue homogenizer. Serial dilutions of the tissue homogenates were conducted, 0.1 mL aliquots were spread on SDA plates and the plates incubated at 35° C. overnight. The CFU/kidneys were determined from colony counts. One-way ANOVA with Bonferroni Multiple Comparisons Test was performed using GraphPad InStat version 3.00 for Windows 95, GraphPad Software, San Diego Calif. USA.

C. albicans [5] = experiment: Disseminated candidiasis model, survival study; type: in vivo; settings: neutropenic mice
Procedure: Mice were made neutropenic with i.p. injections of cyclophosphamide (150 mg/kg in 10 mL/kg) at 4 and 1 day before inoculation. Each animal was then inoculated by injecting 0.1 mL of inoculum of C. albicans in a tail vein. At 2 hours post-infection, the standard was administered orally and the test compound by IV. Compounds were dosed once daily for 4 days.
The kidneys were collected from four mice in Group 1 at 2 hours after infection, from four mice in Groups 2-5 at five days after infection, and from all surviving mice in the infected treatment groups. An aliquot of sterile PBS were added to each tube and the contents homogenized with a tissue homogenizer. Serial dilutions of the tissue homogenates were conducted, 0.1 mL aliquots were spread on SDA plates and the plates incubated at 35° C. overnight. The CFU/kidneys were determined from colony counts.
Survival data was analyzed using the log-rank (Mantel-Cox) test and one-way ANOVA with Tukey's Multiple Comparisons Test was performed on the yeast density and change in body weight data (GraphPad InStat version 5.04).

[6] = Cytotoxicity, MTS viability assay; type: cell-based, human; settings: Table 6
Summary of the method: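 Cytotoxicity in mouse 3T3 fibroblasts and human HepG2 liver cells measured by MTS viability assay. Values reported as EC50.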

- time to significant extracellular ATP accumulation (C. albicans GDH2346 [2]; 32 μg/mL): ≤ 20 min
Compound: NCCSc1cc(SCCN)c(C(F)(F)F)cc1NC(=O)c1cc(C(=O)Nc2cc(C(F)(F)F)c(SCCN)cc2SCCN)ncn1 [Compound 100]
- metabolic activity in mature biofilms [1]: significant reduction of metabolic activity
- ATP efflux (intracellular vs extracellular ATP) (C. albicans GDH2346 [2]; 32 μg/mL, 30 minutes): almost all of the ATP from the cell was extracellular
- concentration with detectable extracellular ATP levels (C. albicans GDH2346 [2]; 30 minutes of exposure): 16 µg/mL
- cells permeabilized (PI uptake) (C. albicans GDH2346 [3]): > 75%

Compound: NCCCOc1cc(OCCCN)cc(-c2ccc3c(c2)c2cc(-c4cc(OCCCN)cc(OCCCN)c4)ccc2n3CCCN)c1 [Compound 135]
- reductions in tissue burden from treatment onset (C. albicans [4]): ≥ 1.5 log10
- survival over a 14-day period, p between Fluconazole and compound (C. albicans [5]; 10 mg/kg IV once daily for 4 days): < 0.01
- survival over a 14-day period, p between Fluconazole and compound (C. albicans [5]; 15 mg/kg IV once daily for 4 days): < 0.01

Compound: N=C(N)N1CCN(c2ccc(-c3cc(-c4ccc(N5CCN(C(=N)N)CC5)cc4)ncn3)cc2)CC1 [Compound 136]
- EC50 ([6]; human, HepG2 cells (transformed liver), read-out: Cytotoxicity EC50 Human HepG2): 453 µM
- EC50 ([6]; mouse, 3T3 fibroblasts, read-out: Cytotoxicity EC50 Mouse 3T3): 311 µM
